Measured values reported in ChEMBL document CHEMBL1201862, “PubChem BioAssay data set” (2004).
“And” between values parts separate entries of the source, which are not always exact repeats. Equal entries are not always repeated.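 In this assay, cells in 96-well plates receive the compound at five concentrations for 48 hours. Endpoints are linearly interpolated between the surrounding concentrations. GI50: concentration for 50% inhibition of growth.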 The source made the active and inactive calls. Rule as the data show it: active = GI50 up to about 1.1 µM and inactive = higher.

Legend:
Assay in all cases: NCI anticancer screen, dose series, 48 h
[1] = tested on: A498
[2] = tested on: CAKI-1
[3] = tested on: CCRF-CEM
[4] = tested on: COLO 205
[5] = tested on: EKVX
[6] = tested on: HCT-15
[7] = tested on: IGROV-1
[8] = tested on: KM12
[9] = tested on: OVCAR-3
[10] = tested on: OVCAR-5
[11] = tested on: PC-3
[12] = tested on: RXF 393
[13] = tested on: SF-268
[14] = tested on: SF-295
[15] = tested on: SN12C
[16] = tested on: SNB-75
[17] = tested on: UO-31
[18] = tested on: A549
[19] = tested on: OVCAR-4
[20] = tested on: MDA-N

Row | Compound | GI50 [1] | GI50 [2] | GI50 [3] | GI50 [4] | GI50 [5] | GI50 [6] | GI50 [7] | GI50 [8] | GI50 [9] | GI50 [10] | GI50 [11] | GI50 [12] | GI50 [13] | GI50 [14] | GI50 [15] | GI50 [16] | GI50 [17] | GI50 [18] | GI50 [19] | GI50 [20]
1 | O=C1CC(c2ccc(O)cc2)C2(O1)C(=O)OC(C(O)CO)C2O (stereo unspecified) | > 100 µM (inactive) | > 100 µM (inactive) | > 100 µM (inactive) | > 100 µM (inactive) | > 100 µM (inactive) | > 100 µM | > 100 µM (inactive) | > 100 µM (inactive) | > 100 µM (inactive) | > 100 µM (inactive) | > 100 µM (inactive) | > 100 µM (inactive) | > 100 µM (inactive) | > 100 µM (inactive) | > 100 µM (inactive) | > 100 µM (inactive) | > 100 µM (inactive) |  |  | 
2 | Cn1cc2ccccc2c1-c1nc(F)nc(OCC(=O)[C@H]2CCC3[C@@H]4CCC5=CC(=O)CC[C@]5(C)C4[C@@H](O)C[C@@]32C)n1 (stereo partly specified) | 17.3 µM (inactive) | 3.92 µM (inactive) | 4.31 µM (inactive) | 20 µM (inactive) | 23.4 µM (inactive) | 7.18 µM | 7.48 µM (inactive) | 16.6 µM (inactive) | 17 µM (inactive) | 37.8 µM (inactive) |  | 3.92 µM (inactive) | 13.1 µM (inactive) | 23.8 µM (inactive) | 15.7 µM (inactive) | 19 µM (inactive) | 19.6 µM (inactive) | 32.4 µM (inactive) | 14.9 µM (inactive) | 
3 | CCSCCCSCCSCC |  |  | > 100 µM (inactive) | > 100 µM (inactive) | > 100 µM (inactive) | > 100 µM | > 100 µM (inactive) | > 100 µM (inactive) | > 100 µM (inactive) | > 100 µM (inactive) | > 100 µM (inactive) |  | > 100 µM (inactive) | > 100 µM (inactive) | > 100 µM (inactive) | > 100 µM (inactive) | > 100 µM (inactive) | > 100 µM (inactive) | 81.5 µM (inactive) | > 100 µM (inactive)
4 | O=C(Cn1ccnc1[N+](=O)[O-])c1ccccc1 | > 100 µM (inactive) | > 100 µM (inactive) | > 100 µM (inactive) | > 100 µM (inactive) | > 100 µM (inactive) | > 100 µM | > 100 µM (inactive) | > 100 µM (inactive) | > 100 µM (inactive) | > 100 µM (inactive) |  | > 100 µM (inactive) | > 100 µM (inactive) | > 100 µM (inactive) | > 100 µM (inactive) | > 100 µM (inactive) | > 100 µM (inactive) | > 100 µM (inactive) | > 100 µM (inactive) | 
5 | COC(=O)[C@]1(C)CCC[C@@]2(C)C1CC[C@@]13C=C(C(C)C)[C@@H](CC1=O)CC23 (stereo partly specified) |  | 34.2 µM (inactive) | 17.7 µM (inactive) | > 10 µM (inactive) | 27.4 µM (inactive) | 21.1 µM | 35.2 µM (inactive) | 34.5 µM (inactive) | 21.4 µM (inactive) |  | 21.6 µM (inactive) | 21.5 µM (inactive) | 32.5 µM (inactive) | 30.6 µM (inactive) | 19.8 µM (inactive) | 59.7 µM (inactive) | 21.7 µM (inactive) | 29.2 µM (inactive) | 35.2 µM (inactive) | 28.8 µM (inactive)
6 | Cc1ccc(C)c(NC(=O)CCc2n[nH]c(=S)o2)c1 | > 100 µM (inactive) | > 100 µM (inactive) | > 100 µM (inactive) | > 100 µM (inactive) | > 100 µM (inactive) | > 100 µM | > 100 µM (inactive) | > 100 µM (inactive) | > 100 µM (inactive) | > 100 µM (inactive) |  | > 100 µM (inactive) | > 100 µM (inactive) | > 100 µM (inactive) | > 100 µM (inactive) | > 100 µM (inactive) | > 100 µM (inactive) | > 100 µM (inactive) | > 100 µM (inactive) | 
7 | FC(F)(F)c1ccc2nc(Sc3ccc4ccccc4c3)cnc2c1 | 28.6 µM (inactive) | 50.2 µM (inactive) | 24.4 µM (inactive) | 75 µM (inactive) | 94 µM (inactive) | 44.7 µM | > 100 µM (inactive) | > 100 µM (inactive) |  | > 100 µM (inactive) |  | 21.9 µM (inactive) | > 100 µM (inactive) | 65.2 µM (inactive) | 73.8 µM (inactive) | > 100 µM (inactive) | > 100 µM (inactive) | > 100 µM (inactive) | 51.5 µM (inactive) | 38.5 µM (inactive)
8 | COc1ccc2[nH]c3c4c(cc(-c5ccccc5)c3c2c1)C(=O)N(c1ccccc1)C4=O | > 45.6 µM (inactive) | 27 µM (inactive) | 4.97 µM (inactive) | 17.7 µM (inactive) | 38.6 µM (inactive) | 41.4 µM | 41.5 µM (inactive) | 33.3 µM (inactive) | 17.9 µM (inactive) | > 100 µM (inactive) |  | 13 µM (inactive) | 23.1 µM (inactive) | 4.84 µM (inactive) | 21.5 µM (inactive) | 6.3 µM (inactive) | 28.5 µM (inactive) | 13.8 µM (inactive) | 0.411 µM (active) | 
9 | COc1cc2c(c(OC)c1)C(=O)C(=O)C(CC1(C)OCCCO1)=C2 | 17.2 µM (inactive) | 5.43 µM (inactive) | 1.91 µM (inactive) | 3.49 µM (inactive) | 15.9 µM (inactive) | 6.25 µM | 14.2 µM (inactive) | 16 µM (inactive) | 3.8 µM (inactive) | 22.9 µM (inactive) |  | 4.38 µM (inactive) | 14.7 µM (inactive) | 13.9 µM (inactive) | 13.2 µM (inactive) | 19.5 µM (inactive) | 12.7 µM (inactive) | 10.9 µM (inactive) | 6.22 µM (inactive) | 
10 | COc1ccc(/C=C2/N/C(=N\N=C/C(O)C(O)C(O)CO)NC2=O)cc1 (stereo unspecified) |  | > 100 µM (inactive) | 63 µM (inactive) and 53 µM (inactive) | 91.4 µM (inactive) | > 100 µM (inactive) | > 100 µM | > 100 µM (inactive) and 76.7 µM (inactive) |  |  | > 100 µM (inactive) |  | > 100 µM (inactive) | 57.5 µM (inactive) | > 100 µM (inactive) | > 100 µM (inactive) |  | > 100 µM (inactive) | > 100 µM (inactive) |  | 72.6 µM (inactive)
11 | CCOC(OCC)c1ccc(/C=C/c2cc(OC)c(OC)c(OC)c2)cc1 | 18.8 µM (inactive) | 24.9 µM (inactive) | 12.9 µM (inactive) | 18.7 µM (inactive) | 33 µM (inactive) | 15.9 µM | 32.7 µM (inactive) | > 10 µM (inactive) | 18 µM (inactive) | 11.4 µM (inactive) |  | 19.8 µM (inactive) | 23.1 µM (inactive) | 19.2 µM (inactive) | 18.9 µM (inactive) | 19.5 µM (inactive) | 15.1 µM (inactive) | 27.7 µM (inactive) | 22.3 µM (inactive) | 
12 | O=C1/C(=C/c2cccc3ccccc23)Cc2ccccc21 | 37 µM (inactive) | 25.6 µM (inactive) | 59.2 µM (inactive) |  | 26.3 µM (inactive) | 34.9 µM | 41.4 µM (inactive) | 35.9 µM (inactive) | 27.1 µM (inactive) | 29.2 µM (inactive) | 16.9 µM (inactive) | 16.7 µM (inactive) | 22.6 µM (inactive) |  | 49.5 µM (inactive) | 29.8 µM (inactive) | 22.1 µM (inactive) | 38.4 µM (inactive) | 22.3 µM (inactive) | 
13 | COC(=O)CCCc1ccc2c(c1)CCC2 |  | > 100 µM (inactive) | > 100 µM (inactive) | > 100 µM (inactive) |  | > 100 µM | > 100 µM (inactive) | > 100 µM (inactive) | > 100 µM (inactive) | > 100 µM (inactive) | > 100 µM (inactive) |  | > 100 µM (inactive) | > 100 µM (inactive) | > 100 µM (inactive) | > 100 µM (inactive) | > 100 µM (inactive) | > 100 µM (inactive) | > 100 µM (inactive) | > 100 µM (inactive)
14 | Nc1ncc(Cc2nn3c(COc4ccc(Cl)cc4)nnc3s2)s1 |  | > 100 µM (inactive) | > 100 µM (inactive) | > 100 µM (inactive) | > 100 µM (inactive) | 0.748 µM | > 100 µM (inactive) | 7.45 µM (inactive) | > 100 µM (inactive) | > 100 µM (inactive) | > 100 µM (inactive) | > 100 µM (inactive) | > 100 µM (inactive) | > 100 µM (inactive) | > 100 µM (inactive) | > 100 µM (inactive) | > 100 µM (inactive) | > 100 µM (inactive) | > 100 µM (inactive) | 
15 | COc1ccc2sc(-n3nc4ccccc4c3Nc3nc4ccc(OC)cc4s3)nc2c1 | 0.873 µM (active) | 1.28 µM (inactive) | 96.4 µM (inactive) | 14.9 µM (inactive) | 3.52 µM (inactive) | 10.5 µM | 2.02 µM (inactive) | 3.99 µM (inactive) | 1.79 µM (inactive) | 2.88 µM (inactive) | 2.89 µM (inactive) | 11 µM (inactive) | 5.01 µM (inactive) | 3.29 µM (inactive) | 3.07 µM (inactive) | 3 µM (inactive) | 7.16 µM (inactive) | 3.77 µM (inactive) | 1.86 µM (inactive) | 
16 | O=C1/C(=C/c2cccc([N+](=O)[O-])c2)Cc2ccccc21 |  | > 100 µM (inactive) | > 100 µM (inactive) | > 100 µM (inactive) | > 100 µM (inactive) | 72.8 µM | > 100 µM (inactive) | 86.5 µM (inactive) | > 100 µM (inactive) | > 100 µM (inactive) | > 100 µM (inactive) |  | > 100 µM (inactive) | > 100 µM (inactive) | > 100 µM (inactive) | > 100 µM (inactive) | 94.8 µM (inactive) | 91.6 µM (inactive) | 75 µM (inactive) | > 100 µM (inactive)
